The text below walks through data of article PMC7327383, “The affinity and selectivity of α‐adrenoceptor antagonists, antidepressants, and antipsychotics for the human α1A, α1B, and α1D‐adrenoceptors” (Pharmacology Research & Perspectives, 2020).

One may read the IC50 as the concentration that gives 50% inhibition.

Test [1] addresses T1, full-length human α1D-adrenoceptor (Homo sapiens, UniProt P25100).
T1 sequence (P25100 1-572): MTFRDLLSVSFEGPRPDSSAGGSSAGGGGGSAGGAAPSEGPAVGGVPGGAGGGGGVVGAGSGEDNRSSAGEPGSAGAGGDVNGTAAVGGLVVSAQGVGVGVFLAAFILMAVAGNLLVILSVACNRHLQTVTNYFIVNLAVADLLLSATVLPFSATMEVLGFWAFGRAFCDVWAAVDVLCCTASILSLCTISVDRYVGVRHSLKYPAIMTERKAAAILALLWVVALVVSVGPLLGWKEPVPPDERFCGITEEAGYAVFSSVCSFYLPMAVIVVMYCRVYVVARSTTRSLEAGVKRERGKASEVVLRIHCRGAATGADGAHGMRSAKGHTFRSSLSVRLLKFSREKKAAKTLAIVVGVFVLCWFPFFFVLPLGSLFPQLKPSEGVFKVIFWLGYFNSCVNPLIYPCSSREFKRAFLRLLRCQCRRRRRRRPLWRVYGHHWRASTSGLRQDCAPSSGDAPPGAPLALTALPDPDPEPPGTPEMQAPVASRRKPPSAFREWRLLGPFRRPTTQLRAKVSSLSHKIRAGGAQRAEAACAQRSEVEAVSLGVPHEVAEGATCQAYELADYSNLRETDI
Put plainly: [3H]prazosin whole-cell competition binding, CHO-α1D cells.

The target of the next test is T2, human α1A-adrenoceptor (Homo sapiens, UniProt P35348).
T2 construct: CHO cells stably expressing either the full‐length human α1A, α1B, or α1D‐adrenoceptor
T2 sequence (P35348 1-466): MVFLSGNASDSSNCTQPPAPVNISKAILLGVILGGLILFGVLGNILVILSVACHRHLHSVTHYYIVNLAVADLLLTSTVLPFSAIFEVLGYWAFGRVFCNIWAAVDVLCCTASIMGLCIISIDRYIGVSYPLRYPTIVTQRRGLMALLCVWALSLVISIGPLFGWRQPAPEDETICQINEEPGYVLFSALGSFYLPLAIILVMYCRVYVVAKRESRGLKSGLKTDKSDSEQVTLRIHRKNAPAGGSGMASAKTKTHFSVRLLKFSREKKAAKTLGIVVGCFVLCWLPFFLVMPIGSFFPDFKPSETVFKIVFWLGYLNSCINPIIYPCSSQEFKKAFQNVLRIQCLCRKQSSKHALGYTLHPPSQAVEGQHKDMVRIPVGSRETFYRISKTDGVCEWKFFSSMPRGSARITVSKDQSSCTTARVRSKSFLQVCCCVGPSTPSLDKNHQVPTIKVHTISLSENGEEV
Kind of test: [3H]prazosin whole-cell competition binding, CHO-α1A cells.

The target of a further test is T3, human α1B-adrenoceptor (Homo sapiens, UniProt P35368).
T3 construct: CHO cells stably expressing either the full‐length human α1A, α1B, or α1D‐adrenoceptor
T3 sequence (P35368 1-520): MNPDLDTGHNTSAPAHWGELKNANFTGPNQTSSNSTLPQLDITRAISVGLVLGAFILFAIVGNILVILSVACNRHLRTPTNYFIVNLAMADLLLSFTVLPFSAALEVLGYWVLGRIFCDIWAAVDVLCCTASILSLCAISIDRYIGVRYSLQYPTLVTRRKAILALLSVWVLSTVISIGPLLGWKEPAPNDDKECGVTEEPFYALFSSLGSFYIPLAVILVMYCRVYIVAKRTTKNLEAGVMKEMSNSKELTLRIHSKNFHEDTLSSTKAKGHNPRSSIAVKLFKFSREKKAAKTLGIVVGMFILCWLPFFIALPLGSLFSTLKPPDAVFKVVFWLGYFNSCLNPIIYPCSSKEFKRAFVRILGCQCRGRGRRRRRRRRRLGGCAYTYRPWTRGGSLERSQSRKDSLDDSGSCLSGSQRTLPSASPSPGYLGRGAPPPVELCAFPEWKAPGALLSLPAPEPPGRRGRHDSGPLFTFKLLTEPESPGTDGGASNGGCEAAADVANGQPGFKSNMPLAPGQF
Kind of test: [3H]prazosin whole-cell competition binding, CHO-α1B cells. Conditions: for Log KD α1B / Kd: single-component inhibition curve, given as log KD (negative), mean ± SE mean; for Kd: read-out: Log KD α1B (converted).

Where [2] appears, read: ratio of KD values, higher α1D affinity (site 1 KD).
Setting [3] is: single-component inhibition curve, given as log KD (negative), mean ± SE mean.
The mark [4] stands for this setting: ratio of KD values, higher α1A affinity, 1.0 under vs = none.
The mark [5] stands for this setting: ratio of KD values, printed under α1A = higher α1A affinity, 1.0 under vs = none.
[6] abbreviates: ratio, 1 = no selectivity for a subtype over another.
The mark [7] stands for this setting: percentage of inhibition through first component, control.
Where [8] appears, read: Log KD α1D, single-component inhibition curve, given as log KD (negative), mean ± SE mean.
Where [9] appears, read: selectivity ratio, 1 = no selectivity for a given receptor subtype over another.
[10] abbreviates: single-component inhibition curve, given as log KD (negative), mean ± SE mean, read-out: Log KD α1A (converted).

Read-outs that look alike come from different tables or passages of the source.

With `CC1c2ccccc2CN1CC1=NCCN1` (centres unmarked) [BRL44408], the “Selectivity ratio α1B vs α1D” value in test [1] (setting [2]) worked out at 2.4 fold. The “Log KD α1D” value in test [1] (setting [3]) was −5.06 ± 0.05. Also, the “Selectivity ratio α1A vs α1D” value on human α1A-adrenoceptor (setting [4]) was 7.2 fold. Further, the “Selectivity ratio α1A vs α1B” value at human α1A-adrenoceptor (setting [5]) turned out to be 17 fold. In addition, the “Log KD α1A” value on human α1A-adrenoceptor (setting [3]) was −5.92 ± 0.09. Also, the “selectivity α1B vs α1D” value on human α1B-adrenoceptor (setting [6]) worked out at 2.4. The “Log KD α1B” value at human α1B-adrenoceptor is −4.68 ± 0.07.
With Labetolol, the “Selectivity ratio α1B vs α1D” value in test [1] was determined as 1.6 fold. Also, at human α1A-adrenoceptor, the “Selectivity ratio α1A vs α1B” value is recorded as 26 fold and the “Selectivity ratio α1A vs α1D” value is 16 fold. On human α1B-adrenoceptor, the “selectivity α1B vs α1D” value amounted to 1.6.
In the case of `O=C1Nc2ccccc2C2=NC(CN3CCN(c4ccccc4)CC3)CN12` (centres unmarked) [2‐PMDQ], the “% site 1 α1D” value in test [1] (setting [7]) worked out at 57.6 ± 2.8% site 1. The “Log KD α1A” value at human α1A-adrenoceptor (setting [3]) was −8.19 ± 0.09. In addition, the “Log KD α1B” value at human α1B-adrenoceptor is reported as −6.95 ± 0.05.
`CN(C)CCCN1c2ccccc2CCc2ccc(Cl)cc21` [Clomipramine] showed a Kd in test [1] (setting [8]) of 0.708 µM. On human α1A-adrenoceptor, the “Selectivity ratio α1A vs α1B” value was determined as 60 fold and the “Selectivity ratio α1A vs α1D” value came to 93 fold. Besides, the Kd on human α1A-adrenoceptor (Log KD α1A, single-component inhibition curve, given as log KD (negative), mean ± SE mean) was 0.00759 µM. For the same compound, on human α1B-adrenoceptor, the “Selectivity ratio α1B vs α1D” value was 1.5 fold and the Kd was 0.457 µM.
The compound `CC(C)(Cc1c[nH]c2ccccc12)NCC(O)COc1ccccc1C#N` (centres unmarked) [Bucindolol] showed a Kd in test [1] (setting [8]) of 0.355 µM. Moreover, the “Selectivity ratio α1B vs α1D” value in test [1] (setting [2]) turned out to be 1.0 fold. On human α1A-adrenoceptor (setting [4]), the “Selectivity ratio α1A vs α1D” value is reported as 13 fold. The “Selectivity ratio α1A vs α1B” value on human α1A-adrenoceptor (setting [5]) was determined as 13 fold. In addition, on human α1A-adrenoceptor (setting [6]), the “selectivity α1A vs 1D” value stood at 13.2 and the “selectivity α1A vs α1B” value was 13. Also, on human α1A-adrenoceptor (setting [9]), the “selectivities α1A vs α1B” value came out at 13 and the “selectivities α1A vs α1D” value worked out at 13. For the same compound, the Kd at human α1A-adrenoceptor (setting [10]) was 0.0269 µM. Moreover, the “α1A affinity, fold lower than that for the human β1 adrenoceptor” value at human α1A-adrenoceptor (β1 affinity from ref 53) was determined as 54 fold. In addition, the “α1A affinity, fold lower than that for the β2 adrenoceptor” value at human α1A-adrenoceptor (β2 affinity from refs 52, 53) amounted to 263 fold. Further, the “selectivity α1B vs α1D” value on human α1B-adrenoceptor (setting [6]) amounted to 1.0. In addition, the Kd on human α1B-adrenoceptor is 0.347 µM.
With `CN[C@H]1CC[C@@H](c2ccc(Cl)c(Cl)c2)c2ccccc21` [Sertraline], in test [1], the “Selectivity ratio α1B vs α1D” value worked out at 1.4 fold. In addition, the Kd in test [1] (setting [8]) was 2.45 µM. At human α1A-adrenoceptor, the “Selectivity ratio α1A vs α1B” value came out at 1.9 fold and the “Selectivity ratio α1A vs α1D” value was determined as 1.3 fold. Moreover, the Kd on human α1A-adrenoceptor (setting [10]) is 1.91 µM. At human α1B-adrenoceptor, the “selectivity α1B vs α1D” value is given as 1.4 and the Kd is 3.55 µM.
As for `COC1(C2=NCCN2)COc2ccccc2O1` (centres unmarked) [RX821002], in test [1] (setting [3]), the “Log KD α1D” value was −5.31 ± 0.13. Further, the “Selectivity ratio α1A vs α1D” value on human α1A-adrenoceptor (setting [4]) worked out at 16 fold. The “Selectivity ratio α1A vs α1B” value on human α1A-adrenoceptor (setting [5]) is on record as 11 fold. Further, at human α1A-adrenoceptor (setting [3]), the “Log KD α1A” value is on record as −6.51 ± 0.09. In addition, the “Selectivity ratio α1B vs α1D” value at human α1B-adrenoceptor (ratio of KD values, higher α1B affinity, 1.0 under vs = none) worked out at 1.4 fold. Also, the “Log KD α1B” value on human α1B-adrenoceptor is −5.46 ± 0.06.
As to `Cc1ccc(/N=C/N(C)/C=N/c2ccc(C)cc2C)c(C)c1` [Amitraz], in test [1], the Kd was 8.32 µM and the “Selectivity ratio α1B vs α1D” value was over 12 fold. In addition, at human α1A-adrenoceptor, the “Selectivity ratio α1A vs α1B” value is on record as over 33 fold and the “Selectivity ratio α1A vs α1D” value is 2.8 fold. In addition, the Kd at human α1A-adrenoceptor (setting [10]) is 3.02 µM. In addition, at human α1B-adrenoceptor (setting [6]), the “selectivity α1B vs α1D” value is on record as over 12. Besides, at human α1B-adrenoceptor (read-out: Log IC50 α1B (converted)), the 50% inhibitory concentration (IC50) was over 100 µM.
Regarding `Cc1c[nH]c(=O)n(CCCN2CCN(c3ccccc3OCC(F)(F)F)CC2)c1=O` [RS100329], the “Log KD α1D site 1” value in test [1] (high-affinity component of two-component curve, control, used for selectivity) was −7.63 ± 0.17. Also, the “Log KD α1D site 2” value in test [1] (low-affinity component of two-component curve, control) is −5.13 ± 0.15. Further, the “% site 1 α1D” value in test [1] (setting [7]) is 70.5 ± 3.0% site 1; in test [1] (two-component inhibition curve, proportion of site 1), -7.63 ± 0.17 -5.13 ± 0.15 70.5 ± 3.0% site 1. The “Selectivity ratio α1B vs α1D” value in test [1] (setting [2]) is given as 9.1 fold. In addition, the “Selectivity ratio α1A vs α1D” value at human α1A-adrenoceptor (setting [4]) is on record as 93 fold. The “Selectivity ratio α1A vs α1B” value on human α1A-adrenoceptor (setting [5]) was 851 fold. Moreover, at human α1A-adrenoceptor (setting [3]), the “Log KD α1A” value is reported as −9.60 ± 0.05. Further, the Kd at human α1A-adrenoceptor (subtype not given, ligands with α1A selectivity (Table 1: α1A), read-out: affinity) is under 0.00025 µM. Besides, the “selectivity α1B vs α1D” value on human α1B-adrenoceptor (setting [6]) came out at 9.1. The “Log KD α1B” value on human α1B-adrenoceptor is recorded as −6.67 ± 0.07.
As for `COc1ccccc1N1CCN(CC(O)COc2cccc3ccccc23)CC1` (centres unmarked) [Naftopidil], the Kd was 0.0871 µM in test [1] (setting [8]), 0.0107 µM at human α1A-adrenoceptor (setting [10]) and 0.151 µM on human α1B-adrenoceptor. Also, the “Selectivity ratio α1B vs α1D” value in test [1] (setting [2]) is 1.7 fold. In addition, the “Selectivity ratio α1A vs α1D” value at human α1A-adrenoceptor (setting [4]) worked out at 8.1 fold. The “Selectivity ratio α1A vs α1B” value on human α1A-adrenoceptor (setting [5]) is 14 fold. For the same compound, at human α1B-adrenoceptor (setting [6]), the “selectivity α1B vs α1D” value is reported as 1.7.
